SMILES strings stand for the structures. Where two headings read alike, the source gives them in different places.

Assay [1] concerns T1, AChE (Rafsanjan population, resistant; modified AChE).
T1 construct: gene AChE1
As to conditions: read-out: I50, pH 7.0, 10 min preincubation at room temperature, thiocholine substrate and DTNB, covalent. An excerpt:
Ellman microplate inhibition assay on AChE (Rafsanjan population, resistant; modified AChE)

The test system of assay [2] is T2, AChE (Bam population, susceptible).
T2 construct: gene AChE1
Description: Ellman microplate inhibition assay. The class given is biochemical, Agonoscena pistaciae. As to conditions: pH 7.0; 10 min preincubation at room temperature; thiocholine substrate and DTNB; covalent; read-out: I50. An excerpt:
Ellman microplate inhibition assay on AChE (Bam population, susceptible)

Assay [3] has the same test system. The assay is described as follows: Ellman microplate kinetics, Michaelis-Menten fit. As to conditions: DTNB; pH 7.0; 37°C; 405 nm; apparent, total AChE. The class given is biochemical, Agonoscena pistaciae. An excerpt: Ellman microplate kinetics, Michaelis-Menten fit on AChE (Bam population, susceptible)
The subject of assay [4] is T1, AChE (Rafsanjan population, resistant; modified AChE). As to conditions: DTNB; pH 7.0; 37°C; 405 nm; apparent, total AChE. An excerpt:
Ellman microplate kinetics, Michaelis-Menten fit on AChE (Rafsanjan population, resistant; modified AChE)

On to `CNC(=O)Oc1cccc2c1OC(C)(C)C2` [carbofuran], for which the IC50 in assay [1] was found to be 0.16 ± 0.01 mM; in assay [2] it was 0.38 ± 0.01 mM. As for `CCN(CC)C(=O)C(Cl)=C(C)OP(=O)(OC)OC` [phosphamidon], the IC50 in assay [1] (stated gain) stood at 4.79 ± 0.02 mM; in assay [2] it was 0.22 ± 0.01 mM. Consider `CNC(=O)/C=C(\C)OP(=O)(OC)OC` [monocrotophos], for which the IC50 is 5.28 ± 0.04 mM in assay [1] (stated gain) and 0.23 ± 0.01 mM in assay [2]. For the compound `CC(=O)SCC[N+](C)(C)C` [ATC, acetylthiocholine iodide], the Km in assay [3] amounted to 1.25 ± 0.05 µM. Take `CCC(=O)SCC[N+](C)(C)C` [PTC, propionylthiocholine iodide]: the Km in assay [4] came to 4.1 ± 0.06 µM; in assay [3], 1.4 ± 0.11 µM.

Take `CNC(=O)O/N=C/C(C)(C)SC` [aldicarb]: the IC50 was 2.85 ± 0.06 mM in assay [1] and 2.59 ± 0.02 mM in assay [2]. Turning to `CNC(=O)Oc1cccc2ccccc12` [carbaryl], the figures for the IC50 in assay [1] and in assay [2] were 2.05 ± 0.03 mM and 2.36 ± 0.02 mM, respectively. Taken in the same sequence, the figures for `CNC(=O)Oc1ccccc1OC(C)C` [propoxur] were 0.83 ± 0.01 mM and 1.06 ± 0.03 mM. As to `CCCC(=O)SCC[N+](C)(C)C` [BTC, butyrylthiocholine iodide], the Km in assay [3] stood at 4.3 ± 0.14 µM. `CNC(=O)Oc1ccc2c(c1)[C@]1(C)CCN(C)[C@@H]1N2C` [eserine]: the IC50 was […] in assay [1] and […] in assay [2]. In the same order, the values of `CNC(=O)Oc1cccc(C)c1` [MTMC, m-tolyl methyl carbamate] are 9.45 ± 0.03 mM and 20.43 ± 0.17 mM.

Source of the values: paper PMC4199533, “Toxicological and biochemical characterizations of AChE in phosalone-susceptible and resistant populations of the common pistachio psyllid, Agonoscena pistaciae” (Journal of Insect Science, 2014).
